Here are results for 68 compounds from the pKa sets of Baltruschat and Czodrowski (2020).

SMILES strings stand for the structures.

Broadly, the pKa is the pH at which an ionisable group is half protonated. The compound `O=C([O-])[C@H](NCCN[C@@H](C(=O)[O-])c1ccccc1[O-])c1ccccc1[O-]` showed a pKa (basic group) of 12.1.
As for `O=C1CCc2cc(Cl)ccc2C1`, the pKa (acidic group) was found to be 12.5.
Under “basic group”, `CNc1cccnc1` had a pKa of 6.41.
The same measure, in the same setting: as for `CCCCNc1nnc(-c2ccccc2)cc1C`, the figure is 6.1.
In the case of `CC(=O)c1ccc(O)c(=O)cc1`, the pKa (acidic group) was found to be 5.01.
Under “basic group”, `CC(C)NC[Si](C)(C)C` had a pKa of 10.8.
On the same count and under the same terms, as for `CCNN`, the figure is 7.95; as for `CC(=O)Nc1ccc(N)cc1`, 4.46.
As for `Cc1ccc(S(=O)(=O)N(CC[NH2+]CC(=O)O)CC(=O)O)cc1`, the pKa (acidic group) was found to be 1.99.
Take `CCOc1ccc2nccc([C@@H](O)[C@@H]3C[C@H]4CC[NH+]3C[C@@H]4CC)c2c1`: the pKa (basic group) turned out to be 4.05.
In the case of `CN(C1=NCCCO1)c1ccccc1`, the pKa (basic group) came to 10.7.
Still for that read-out and setting: as for `CC(O)CNCC(C)O` (stereo unspecified), the figure is 8.88.
The same measure, in the same setting: the same measure for `CC(C=C(c1cccs1)c1cccs1)N1CCCCCCC1` (stereo unspecified): 7.52.
Same read-out and setting: the same measure for `CN(c1ccccc1)C1CCCC1`: 6.71; for `[NH3+]c1ccc(-c2cnc(-c3ccc(Br)cc3)o2)cc1`: 0.26.
`Cc1cc(C(=O)O)ccc1O` had a pKa (acidic group) of 4.68.
Same read-out and setting: as for `C(CSCCc1nnn[nH]1)SCCc1nnn[nH]1`, the figure is 5.
`CC1=[NH+]c2ccccc2/C1=C/C=C1\Cc2ccccc2N1C` gave a pKa (basic group) of 1.22.
For the compound `COCCN`, the pKa (basic group) is 9.67.
With `NC(=O)[C@@H](N)CSSC[C@H](N)C(N)=O`, under “acidic group”, the pKa stood at 6.41.
Consider `COc1ccccc1-c1ccccc1O`, for which the pKa (acidic group) was determined as 10.4.
The compound `c1ccc(Nc2ccccc2)cc1` returned a pKa (basic group) of 0.76.
For the compound `CCSC(=O)c1ccc(OC)cc1`, the pKa (basic group) is -3.77.
Still for that read-out and setting: the same measure for `CCOC(=O)c1ccc(N)cc1`: 2.58.
For the compound `Cc1cc(C(F)(F)F)n[nH]1`, the pKa is 12.3 (acidic group) and -0.5 (basic group).
`[O-]c1[nH+]c(O)c(Br)c[n+]1[C@H]1O[C@@H](CO)[C@H](O)[C@@H]1O` yielded a pKa (acidic group) of -0.9.
Under “acidic group”, `O=C1C[C@H](C(=O)O)[C@@H](C(=O)O)O1` gave a pKa of 2.26.
For the compound `CC(O)CN(C)CC(C)O` (stereo unspecified), the pKa (basic group) turned out to be 8.7.
With `CCc1ccc(O)c(CN(C)C)c1`, the pKa (basic group) worked out at 8.51.
`Nc1ccc2[nH]c(=O)[nH]c2c1`: the pKa (basic group) was 5.
`CC(=O)C(C)C(=O)C(C)C` (stereo unspecified): the pKa (acidic group) is 11.8.
The same measure, in the same setting: the same measure for `Cc1ccccc1C(O)C(C(=O)O)c1ccc(-c2ccccc2)cc1` (stereo unspecified): 4.19.
In turn, `NCC(N)=S` showed a pKa (basic group) of 7.27.
With `O=C(c1ccccc1)c1ccc(O)cc1`, the pKa (acidic group) was found to be 8.01.
On the same count and under the same terms, as for `N#CC1C=CN(Cc2cccc(F)c2)C=C1C(N)=O` (stereo unspecified), the figure is 0.68.
The compound `Nc1ccc(S(=O)(=O)Nc2ncc[nH]2)cc1` displayed a pKa (acidic group) of 9.72.
Compound `O=[N+]([O-])c1ccc2c(O)cccc2c1` showed a pKa (acidic group) of 8.49.
Regarding `NCc1ccc(Cl)cc1`, the pKa (basic group) turned out to be 9.24.
On the same count and under the same terms, as for `CCOC(C)=N`, the figure is 7.15; as for `CC(C)(C)N1NC2CCC1C21CC1` (stereo unspecified), 9.33.
Under “basic group”, `CCc1cnnc(C)c1` displayed a pKa of 4.17.
Regarding `NCc1cc(Cl)ccc1[N+](=O)[O-]`, the pKa (basic group) came out at 8.19.
Same read-out and setting: the same measure for `C=CC(C)(CC)N(C)C(C)C` (stereo unspecified): 11.3.
Consider `Nc1ncc2[nH]cnc2n1`, for which the pKa (acidic group) was 9.93 and the pKa (basic group) was 3.8.
For `O=C([O-])CN=C1CCCC1`, the pKa (basic group) is 8.72.
`NCCCCCC#CC#CCCC(=O)[O-]` showed a pKa (basic group) of 10.7.
Same read-out and setting: the same measure for `NCCCC[NH2+]CCCN`: 9.86; for `Cn1cnc2cc(N)ccc21`: 6.29; for `NCC(O)c1ccc(Cl)cc1` (stereo unspecified): 9.04.
In turn, `CC(=O)N1CCc2noc(O)c2CC1` came in with a pKa (acidic group) of 4.3.
Regarding `C[NH2+]CCN(C)CCN`, the pKa (basic group) is 9.68.
The compound `Cc1c(Br)cccc1C(=O)O` yielded a pKa (acidic group) of 3.36.
Consider `CN(C)CCC(C#N)(c1ccccc1)c1ccccc1`, for which the pKa (basic group) was determined as 8.31.
On to `Nc1ccc2[nH]c(Cc3ccccc3)nc2c1`, for which the pKa (basic group) is 6.4.
For the compound `Nc1ncnc2c1ncn2CCOCP(=O)([O-])O`, the pKa runs as follows: (acidic group) 7; (basic group) 4.18.
For `Nc1nc2ccccc2[nH]1`, the pKa (basic group) was determined as 7.49.
On to `CCCc1ccccc1N`, for which, where the note is “basic group”, the pKa was found to be 4.36.
Compound `O=C([O-])c1cc(O)c(O)c(C(=O)[O-])[o+]1` registered a pKa (acidic group) of 9.82.
Same read-out and setting: as for `Nc1nc(O)[nH+]c2nc[nH]c12`, the figure is 4.51.
Take `Cc1cc2cccc(C)c2nc1C`: the pKa (basic group) is 4.41.
With `CCN(CC)Cc1cc(Cl)cc(Cl)c1[O-]`, for the setting “basic group”, the pKa is 11.6.
The compound `Oc1c(Cl)cc(Cl)c(Cl)c1C[NH+]1CCOCC1` returned a pKa (acidic group) of 4.84.
Still for that read-out and setting: the same measure for `O=C(O)/C=C\c1c[nH]c[nH+]1`: 3.
Where the note is “acidic group”, `C[n+]1ccc(C(=O)c2ccccc2)cc1` came in with a pKa of 12.2.
`COc1cccc(/N=C/N(C)C)c1` had a pKa (basic group) of 8.6.
`Sc1cccc2ncccc12`: the pKa (acidic group) turned out to be 6.48.
Consider `O=[Se](O)c1ccccc1-c1ccccc1`, for which the pKa (acidic group) is 4.67.
Still for that read-out and setting: as for `OB1OCc2ccccc21`, the figure is 7.38.
